We go through 8 compounds from patent publication US6255317A, “Cholesterol biosynthesis inhibitors” (Hanwha Chemical Corporation, priority 1998, dated 2001).

Each structure is given as a SMILES string. Like-named read-outs stand apart in the source and are kept apart here.

One series concerns the target T1, sterol 14-reductase (Rattus norvegicus, UniProt A0ACM8Q6X4).
T1 construct: to give a microsome which was used as an enzyme source of sterol 14-reductase; from tissue
T1 sequence (A0ACM8Q6X4 1-418): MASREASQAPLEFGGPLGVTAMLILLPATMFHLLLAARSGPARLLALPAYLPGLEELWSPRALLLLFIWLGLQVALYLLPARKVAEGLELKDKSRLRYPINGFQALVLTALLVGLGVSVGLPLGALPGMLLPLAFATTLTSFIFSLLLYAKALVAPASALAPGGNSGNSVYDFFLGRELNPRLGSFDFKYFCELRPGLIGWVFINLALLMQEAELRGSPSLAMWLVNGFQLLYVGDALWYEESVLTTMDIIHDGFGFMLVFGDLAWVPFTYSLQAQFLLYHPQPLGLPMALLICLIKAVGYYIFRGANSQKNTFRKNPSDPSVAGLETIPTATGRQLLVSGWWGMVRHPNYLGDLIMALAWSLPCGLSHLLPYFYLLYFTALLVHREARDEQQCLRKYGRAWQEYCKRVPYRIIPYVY
The series is described as follows: Sterol 14-reductase assay with rat liver microsomes (substrate 4,4-dimethyl-5α-cholesta-7,14-dien-3β-ol, GLC). It counts as biochemical, Sprague-Dawley rats. In general terms: Liver microsomes are a subcellular fraction often used to study metabolism.

The next series has as its system Syrian Golden Hamster. Briefly: In vivo effect on plasma lipids and glucose in Syrian Golden Hamster. To be noted: for total cholesterol, LDL-cholesterol, and triglyceride levels (in words): Syrian Golden Hamster, compared with lovastatin; for Glucose, percent change in parentheses / HDL cholesterol, percent change in parentheses / LDL cholesterol, percent change in parentheses / Total cholesterol, percent change in parentheses / Trigly-ceride, percent change in parentheses: against normal diet control, 6.0 mg/kg/day; for Glucose / HDL cholesterol / LDL cholesterol / Total cholesterol / Trigly-ceride: normal diet + 6.0 mg/kg/day, oral, 14 days; for Glucose: hamster; for HDL cholesterol / LDL cholesterol / Total cholesterol / Trigly-ceride: hamster plasma. On the procedure:
In order to investigate the effect of the compound of formula (1) of the invention, the compound was orally administered into male Syrian Golden Hamsters having weights of 90~110 g and then blood was taken from each animal. Plasma lipids, i.e., total cholesterol, LDL-cholesterol, HDL-cholesterol and triglycerides were analyzed using an automatic analyzer (Automatic analyzer model Hitachi 7150).
Male Syrian Golden Hamsters weighing 90~110 g distributed from Samyuk Animal Laboratory, Seoul, Korea were bred under the following conditions: They were maintained under reverse light cycle (light cycle: from 6 P.M to 6 A.M; dark cycle: from 6 A.M. to 6 P.M.). The food and water were supplied at 10 A.M. The commercially available standard rodent chows were used. The hamsters were divided into 6 or 7 animals per group. The animals were fasted for 12 hours before administrating the drug. Then, dehydrocoridaline derivatives dissolved in a 0.25% methyl cellulose solution was administered orally for 14 days at the indicated time per a day. After fasting animals for 24 hours from the last administration, blood was extracted using a cardiac puncture and plasma was then isolated. Plasma lipids, i.e., total cholesterol, LDL-cholesterol, HDL-cholesterol and triglyceride values were analyzed using Automatic Analyzer (Hitachi 7150).

The next series relates to SD rats. Briefly: Acute oral toxicity in SD rats. The format is in vivo. To be noted: for general symptoms, weight change and lethal case over two weeks: rat, in vivo. On the procedure: (§1) Meanwhile, the toxicity of the compounds of the present invention was mvestigated as follows: i.e., the compounds were suspended into propylene glycol and then orally administered into each of 5 male and female SD rats at the age of 5-weeks that were fasted for 12 hours. Under the usual breeding conditions, general symptoms, weight change and lethal case of the above rats were monitored for two weeks. At the dose over 2,000 mg/kg of the compound nos. […] Rats were safe against the dose of 700 mg/kg of compound no. 8.

Series [1] can be described thus: Acute oral toxicity in SD rats. To be noted: rat, in vivo, po, rats. It counts as in vivo. On the procedure:
as §1

Series [2] concerns human liver HepG2 cell line. The series is described as follows: Cholesterol biosynthesis in cultured human liver cell line HepG2 ([1,2-14C]acetate). It counts as cell-based. To be noted: compared with AY9944, comparative drug. The method, then: Cultured human liver HepG2 cell line was grown on RPMI (Rosewell park Memorial Institute) 1640 culture medium containing 10% […] until 60% of monolayer are formed in a 60 mm culture dish. After replacing the medium with 3 ml of a fresh culture medium containing 10%(v/v) LPDS (Fetal calf lipoprotein-deficient serum), the cells were further grown for 48 hours until 90% of cultivation degree appear. The culture medium was removed and the cell was then washed with PBS. 2 ml of culture medium containing compound no. 8 (final concentration 100 μM) and AY-9944 (final concentration 1 μM) were added thereto. Then, the medium was cultivated at 37° C. for 1 hour under the condition of 95% air/5% carbonic acid gas. AY-9944 which is an inhibitor for sterol 7-reductase was used as a control drug for assuring the present experimental procedure on the inhibition of cholesterol biosynthesis. Thereafter, 3 μCi of [1 ,2-^14 C]acetate (72 mCi/mmol) were added thereto. The cultivation was continued for 2 hours so that the isotope is introduced into the cell and used as a precursor for sterol to be synthesized. Then, the culture medium was completely removed and washed with PBS twice and the cells were collected by scratching. 10 μg of cholesterol, 10 μg of lanosterol and [^3 H]cholesterol (30,000 dpm) were added thereto, and saponification reaction was carried out at 70° C. for an hour by adding 7.5% of methanolic KOH solution. Unsaponified sterol was removed by extracting them three times with 3 ml of petroleum ether and dried with nitrogen purging. The dried samples were redissolved in 200 μl of chloroform. An aliquot of the samples was loaded onto Silicagel 60F thin layer plate and then separated using ethyl acetate/hexane 25/75 (v/v) as the developing solvent. The thin layer film was developed by exposure to Amersham Hyperfilm at -70° C. for 7 days. Cholesterol band were confirmed by comparing the band appeared in the film and that appeared in the iodine-stained thin layer. After scratching the cholesterol band, it was quantified by a liquid scintillation counter.

[3] abbreviates: read-out: Enzyme Activity (relative in vitro activity for sterol 14-reductase, IC50 class).

Protocol for sterol 14-reductase: First, a screening system for sterol 14-reductase was constructed in which 4,4-dimethyl-5α-cholesta-7,14-dien-3β-ol is used as a substrate and then, the effect on the activity of sterol 14-reductase was investigated in the screening system.
The animals were fasted for 12 hours before excising liver tissues and then sacrificed by decapitation at midnight. An aqueous solution containing 0.25M of sucrose was injected into the hepatic portal vein to remove all the blood within the liver, and then, the liver was excised. The liver was homogenated with two volummes of buffer solution 1 (0.1 M potassium phosphate , 1 mM reduced glutathione, 0.5 mM EDTA, 20% (v/v) glycerol, pH 7.4) by repeating pestles over 10 times and then, centrifuged with 900×g for 5 minutes to give a supernatant. The supernatant was centrifuged with 12,000×g for 20 minutes. The supernatant obtained was ultracentrifuged with 105,000×g for 90 minutes to give a microsome which was used as an enzyme source of sterol 14-reductase. Assay against sterol 14-reductase was carried out as follows: 60 nmol of 4,4-dimethyl-5α-cholesta-7,14-dien-3β-ol and the extract from Corydalis Turtschaninowii Besser dissolved into DMSO were added to an assay mixture (total volume 1.0 ml) containing 2 mg of microsomal protein, 2 mM of NADPH and 25 mg of glucose plus 20 units of glucose oxidase with preincubations under nitrogen at 37° C. for 4 min unless otherwise specified to establish anaerobic condition. Buffer A (0.1M potassium phosphate buffer, pH 7.4, including 1 mM reduced glutathione, 0.5 mM EDTA, and 20% (v/v) glycerol) used for incubation had been equilibrated with nitrogen, and nitrogen was exchanged for air in all sealed reaction flasks prior to the start of incubations. Incubation of the complete mixture was carried out anaerobically in sealed flasks for 10 min at 37° C. unless otherwise indicated. Incubations were terminated by the addition of 1 ml of ethanolic KOH followed by heating under reflux for 10 min. Sterols were extracted four times with 4 ml of petroleum ether, and the solvent was evaporated to dryness under a nitrogen stream. The resulting residue was dissolved in 200-500 μl of n-hexane for quantification by GLC at high sensitive attenuation. The activity of sterol 14-reductase was determined with the amount of the substrate wherein the double bonds of 14-carbon were reduced (for the amount reduced by 1 mg of the microsome protein for 1 minute).

In general, LD50 refers to the dose expected to kill half of the subjects tested. Consider `CCOc1cc2c(cc1OCC)-c1c(CC)c3ccc(OCC)c(OCC)c3c[n+]1CC2` [Compound No. 5, 2,3,9,10-Tetraethoxy-13-ethylberberine], for which the IC50 at sterol 14-reductase (setting [3]) is at most 1 µM. For the same compound, in the series on Syrian Golden Hamster, the “total cholesterol, LDL-cholesterol, and triglyceride levels (in words)” value (“total cholesterol, LDL-cholesterol” for short) is reported as “markedly decreased”; the “Glucose, percent change in parentheses” value is reported as -12.4%; the “HDL cholesterol, percent change in parentheses” value (from here on “HDL cholesterol, percent change”) is given as -3.2%; the “LDL cholesterol, percent change in parentheses” value (from here on “LDL cholesterol, percent change”) is on record as -41.2%. Besides, in the series with Syrian Golden Hamster, the “Total cholesterol, percent change in parentheses” value (from here on “Total cholesterol, percent change”) is reported as -23.5%; the “Trigly-ceride, percent change in parentheses” value (“Trigly-ceride, percent change” below) is on record as -28.5%; the Glucose was determined as 160.2 ± 20.9 mg/dL; the HDL cholesterol is 51.1 ± 3.0 mg/dL. Moreover, in the series with Syrian Golden Hamster, the LDL cholesterol was 24.9 ± 3.0 mg/dL, the Total cholesterol amounted to 97.0 ± 5.6 mg/dL and the Trigly-ceride is 94.7 ± 11.5 mg/dL. For the same compound, the “general symptoms, weight change and lethal case over two weeks” value in the series on SD rats was “general symptoms and the body weight change of the animals were normal and the lethal case was not observed”. The LD50 at 336 h in series [1] (female) was over 5000 mg/kg. Also, the LD50 at 336 h in series [1] (male) was over 5000 mg/kg. For the same compound, the “cholesterol biosynthesis in human HepG2 cell line (in words)” value (shortened to “cholesterol biosynthesis”) in series [2] was “markedly inhibited”.

`CCc1c2[n+](cc3c(OC)c(OC)ccc13)CCc1cc3c(cc1-2)OCO3` [Compound No. 6, 13-Ethylberberine]: on sterol 14-reductase (setting [3]), the IC50 was at most 1 µM. Moreover, the “cholesterol biosynthesis” value in series [2] is “markedly inhibited”.

Consider `CCc1c2[n+](cc3c(OC)c(OC)ccc13)CCc1cc(OC)c(OC)cc1-2` [Compound No. 8, 13-Ethylpalmatine], for which the IC50 on sterol 14-reductase (dissolved in DMSO, read-out: concentration of active ingredient in the assay at which 50% of inhibitory effect was observed (sterol 14-reductase)) was in the range of 100 to 3000 µM. In addition, on sterol 14-reductase (setting [3]), the IC50 is at most 1 µM. Also, in the series with Syrian Golden Hamster, the “total cholesterol, LDL-cholesterol” value is reported as “markedly decreased”; the “Glucose, percent change in parentheses” value is reported as -10.9%; the “HDL cholesterol, percent change” value is reported as -1.8%; the “LDL cholesterol, percent change” value was -42.0%. Further, in the series on Syrian Golden Hamster, the “Total cholesterol, percent change” value was -25.4%; the “Trigly-ceride, percent change” value was -31.7%; the Glucose is 162.2 ± 11.3 mg/dL; the HDL cholesterol was found to be 47.5 ± 3.0 mg/dL. In the series with Syrian Golden Hamster, the LDL cholesterol is 24.5 ± 1.8 mg/dL, the Total cholesterol stood at 94.0 ± 6.6 mg/dL and the Trigly-ceride turned out to be 90.4 ± 8.9 mg/dL. Moreover, the “safety of rats at single oral dose” value in the series with SD rats (dose of 700 mg/kg, oral, SD rats) is on record as “safe”. The same compound yielded an LD50 at 336 h in series [1] (female) of over 760 mg/kg. In series [1] (male), this compound had an LD50 at 336 h of over 925 mg/kg. Moreover, the “cholesterol biosynthesis” value in series [2] is “markedly inhibited”.

`CCC1=C2c3cc(OC)c(OC)cc3CCN2C(CC(C)=O)c2c1ccc(OC)c2OC` (centres unmarked) [Compound No. 37, 8-Acetonyl-13-ethyldihydropalmatine]: the IC50 at sterol 14-reductase (setting [3]) was at most 1 µM. Besides, in the series on Syrian Golden Hamster, the “total cholesterol, LDL-cholesterol” value is “markedly decreased”; the “Glucose, percent change in parentheses” value is recorded as -23.0%; the “HDL cholesterol, percent change” value is given as “+2.0%”; the “LDL cholesterol, percent change” value is listed as -52.1%. In the series with Syrian Golden Hamster, the “Total cholesterol, percent change” value was -33.5%; the “Trigly-ceride, percent change” value was -48.1%; the Glucose worked out at 140.4 ± 15 mg/dL; the HDL cholesterol amounted to 54.2 ± 3.0 mg/dL. In the series on Syrian Golden Hamster, the LDL cholesterol came out at 20.2 ± 2.0 mg/dL, the Total cholesterol was 83.8 ± 5.6 mg/dL and the Trigly-ceride was 68.8 ± 11.5 mg/dL. Further, in the series on SD rats, the “general symptoms, weight change and lethal case over two weeks” value is “general symptoms and the body weight change of the animals were normal and the lethal case was not observed”. In series [1] (female), this compound displayed an LD50 at 336 h of over 2000 mg/kg. The compound also showed an LD50 at 336 h in series [1] (male) of over 2500 mg/kg. The “cholesterol biosynthesis” value in series [2] is “markedly inhibited”.

`CCC(=O)CC1c2c(ccc(OC)c2OC)C(CC)=C2c3cc(OC)c(OC)cc3CCN21` (centres unmarked) [Compound No. 38, 8-(butan-2-one-1-yl)-13-ethyldihydropalmatine]: on sterol 14-reductase (setting [3]), the IC50 was at most 1 µM. The “cholesterol biosynthesis” value in series [2] was “markedly inhibited”.

`CCC1=C2c3cc(OC)c(OC)cc3CCN2Cc2c1ccc(OC)c2OC` [Compound No. 46, 13-Ethyldihydropalmatine]: at sterol 14-reductase (setting [3]), the IC50 is at most 1 µM. Besides, in the series on Syrian Golden Hamster, the “total cholesterol, LDL-cholesterol” value is listed as “markedly decreased”; the “Glucose, percent change in parentheses” value is -12.7%; the “HDL cholesterol, percent change” value was -6.8%; the “LDL cholesterol, percent change” value is on record as -50.7%. Besides, in the series with Syrian Golden Hamster, the “Total cholesterol, percent change” value is given as -34.6%; the “Trigly-ceride, percent change” value is listed as -35.6%; the Glucose worked out at 158.8 ± 16 mg/dL; the HDL cholesterol was 49.2 ± 2.9 mg/dL. In the series with Syrian Golden Hamster, the LDL cholesterol amounted to 20.8 ± 2.3 mg/dL, the Total cholesterol amounted to 82.4 ± 5.4 mg/dL and the Trigly-ceride was 85.2 ± 11.0 mg/dL. The “general symptoms, weight change and lethal case over two weeks” value with SD rats was “general symptoms and the body weight change of the animals were normal and the lethal case was not observed”. Also, the LD50 at 336 h in series [1] (female) is over 3000 mg/kg. For the same compound, in series [1] (male), the LD50 at 336 h was over 3000 mg/kg. The “cholesterol biosynthesis” value in series [2] is “markedly inhibited”.

As to `CCOc1cc2c(cc1OCC)C1=C(CC)c3ccc(OCC)c(OCC)c3CN1CC2` [Compound No. 47, 13-Ethyl-2,3,9,10-tetraethoxydihydroprotoberberine], on sterol 14-reductase (setting [3]), the IC50 is at most 1 µM. For the same compound, the “cholesterol biosynthesis” value in series [2] is listed as “markedly inhibited”.

As for `CC[C@H](C)C(=O)O[C@H]1C[C@@H](C)C=C2C=C[C@H](C)[C@H](CC[C@@H]3C[C@@H](O)CC(=O)O3)[C@H]21` [lovastatin, reference compound], in the series with Syrian Golden Hamster, the “Glucose, percent change in parentheses” value is “+1.0%”; the “HDL cholesterol, percent change” value is -2.6%; the “LDL cholesterol, percent change” value was -29.1%; the “Total cholesterol, percent change” value is -22.7%. For the same compound, in the series on Syrian Golden Hamster, the Glucose is 184.6 ± 23.2 mg/dL, the HDL cholesterol came out at 51.4 ± 2.6 mg/dL, the LDL cholesterol was found to be 29.9 ± 1.9 mg/dL and the Total cholesterol came to 97.4 ± 3.4 mg/dL. Further, the Trigly-ceride in the series on Syrian Golden Hamster was determined as 182.6 ± 17.0 mg/dL.
